According to article PMC11591947, “Peroxidase-like Nanoparticles of Noble Metals Stimulate Increasing Sensitivity of Flavocytochrome b2-Based L-Lactate Biosensors” (Biosensors, 2024):

Molecular target: T1, Flavocytochrome b2 (Fcb2, EC 1.1.2.3) (Ogataea polymorpha, UniProt A0A9P8PNE1)
T1 construct: gene OGATHE_001663
Experiment: chronoamperometry on Fcb2/graphite electrode biosensor
Type: biochemical
Details: immobilised enzyme (0.3 units, Nafion film, no nanoparticles); 1 mM PMS; +200 mV vs Ag/AgCl; apparent value of bioelectrode

T1 sequence (A0A9P8PNE1 55-553): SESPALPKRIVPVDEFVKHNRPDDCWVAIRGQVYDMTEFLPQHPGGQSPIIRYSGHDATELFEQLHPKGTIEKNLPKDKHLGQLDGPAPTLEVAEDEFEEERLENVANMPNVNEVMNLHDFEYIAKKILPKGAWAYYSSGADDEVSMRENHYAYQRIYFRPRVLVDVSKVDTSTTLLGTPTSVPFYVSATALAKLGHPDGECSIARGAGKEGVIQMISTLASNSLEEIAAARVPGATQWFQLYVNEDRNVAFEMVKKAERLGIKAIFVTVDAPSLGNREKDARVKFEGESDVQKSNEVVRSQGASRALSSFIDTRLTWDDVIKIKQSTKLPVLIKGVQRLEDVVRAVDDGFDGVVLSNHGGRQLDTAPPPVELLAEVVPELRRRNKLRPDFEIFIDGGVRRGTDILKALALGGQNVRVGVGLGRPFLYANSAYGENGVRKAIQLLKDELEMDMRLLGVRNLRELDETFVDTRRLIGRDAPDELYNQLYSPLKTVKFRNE

SMILES: C[C@H](O)C(=O)O [L-lactate]
- KM^app: Calibration curves illustrating the current dependence on the L-lactate concentration for the ABS
